Laboratory results: patent US11331295B2, “High-dose statins for age-related macular degeneration” (MASSACHUSETTS EYE AND EAR INFIRMARY, priority 2015, dated 2022)
Read-outs that look alike come from different tables or passages of the source.

What was measured:
ARPE-19 cells = assay: Phagocytosis analysis by flow cytometry (fluorescent carboxylate microspheres); assay type: cell-based, human; settings: 6 hours; for percentage of ARPE-19 phagocytic cells / mean fluorescence intensity (phagocytic index): 50 μM statin; for percentage of ARPE-19 phagocytic cells: control 31%; for mean fluorescence intensity (phagocytic index): control 332; for percentage of phagocytic ARPE-19 cells: DMSO control 31%; for mean fluorescence intensity of cells: control 340
Method: A flow cytometric assay was used to evaluate cell phagocytosis according to a protocol described by Pranab (Mukherjee et al., 2007 Proc Natl Acad Sci USA 104:13158-63). Briefly, ARPE-19 cells were seeded in 12-well plates and cultured until 90% confluent. […] After incubation, cells were washed with PBS three times to remove any extracellular beads, then trypsinized (0.25% trypsin-EDTA, Gibco, US) for 1 minute, and neutralized with pre-warmed culture medium. The cell suspension was collected and centrifuged (241 g, 5 minutes). The cell pellet was re-suspended in 0.5 ml PBS for each sample. Subsequently, the cells were analyzed for green phagocytized fluorescent beads (excitation wavelength of 441 nm and emission wavelength of 486 nm) by a FACScalibur flow cytometer using the CellQuest 3.0.1 (Becton & Dickinson, Mountain View, Calif., US) and FlowJo 10.0 software. The percent of phagocytic cells present in each group was recorded as well as the mean fluorescence intensity of engulfed particles.
The percentage of phagocytic ARPE-19 cells and the mean fluorescence intensity of engulfed particles per group were measured by flow cytometry 6 hours after treatment.
Vavvas et al., 2016 EBioMedicine 5:198-203). […] The effects of cholesterol crystals and ox-LDL on the phagocytic function of RPE cells were studied because impairment of this function is linked to AMD (Nandrot et al., 2007 Adv Exp Med Biol 801:978-1). ARPE-19 cells were treated with 2 mg/ml cholesterol crystals for 6 hours, or 300 μg/ml oxLDL for 18 hours. The phagocytic function was then assessed by flow cytometry, as described in the methods.

[1] = tested on: patient with AMD (large soft drusen); assay: Report of initial case: 80 mg atorvastatin daily in a patient with AMD; assay type: in vivo, human
Method: (§1) A case report and pilot multi-center prospective interventional study were conducted with IRB approval. Inclusion criteria were patients over the age of 50 with diagnosis of AMD and the presence of many large, soft drusen/drusenoid PEDs in both eyes. […] Pseudophakia was not a reason for exclusion, unless accompanied by significant posterior capsular opacity.
An otherwise healthy person with AMD presented deteriorating visual acuity. Their baseline visual acuity was 20/25 with significant distortion; they were already taking Age-Related Eye Disease Study (AREDS) supplementation. […] Spectral domain optical coherence tomography (SD-OCT) confirmed the significant extent of these deposits and pigment epithelial detachments as well as the overlying RPE and photoreceptor architectural distortion (FIG. 2, top row). No subretinal or intraretinal fluid was present. Standard AREDS supplementation was continued. […]

[2] = tested on: patients with AMD with many large, soft drusen/drusenoid PEDs
Method: as §1

IL-6 = IL-6 secretion from ARPE-19 cells (western blot of culture medium); assay type: cell-based, human
Method: (§2) ARPE-19 cells were seeded in 6-well plates at a density of 1×10^5 cells/well. […] The membrane was then washed and incubated with secondary antibodies. The membrane was developed with enhanced chemiluminescence. The intensity of protein bands was measured using the software Image Lab 4.1 (Bio-Rad, Hercules, Calif., US).
Cholesterol crystals induce the secretion of the inflammatory cytokines IL-6 and IL-8 in ARPE-19 cells (Hu et al., 2014 Discovery Med. 18(97):7-14). […] The levels of IL-6 and IL-8 were evaluated using western blot or ELISA. As expected, cholesterol crystals increased ARPE-19 secretion of IL-6 and IL-8, 3.2- and 2.5-fold, respectively, compared to control treatment (FIGS. 7A and B). […] Similar to cholesterol crystals, incubation of ARPE-19 with ox-LDL led to a 2.6- and 1.3-fold increase in secreted IL-6 and IL-8, respectively.

IL-8 = IL-8 secretion from ARPE-19 cells (western blot / ELISA); assay type: cell-based, human
Method: as §2
IL-8 induced by oxLDL was measured by analysis of conditioned media of ARPE-19 cells using an ELISA kit (IL-8, R&D Systems, Minneapolis, Minn., US) according to the manufacturer's instructions.
Cholesterol crystals induce the secretion of the inflammatory cytokines IL-6 and IL-8 in ARPE-19 cells (Hu et al., 2014 Discovery Med. 18(97):7-14). […] The levels of IL-6 and IL-8 were evaluated using western blot or ELISA. As expected, cholesterol crystals increased ARPE-19 secretion of IL-6 and IL-8, 3.2- and 2.5-fold, respectively, compared to control treatment (FIGS. 7A and B). […]. […].

[3] = six months after 80 mg atorvastatin
[4] = 50 μM atorvastatin, 300 μg/ml ox-LDL 18 hours
[5] = 50 μM atorvastatin, cholesterol crystals

CC[C@H](C)C(=O)O[C@H]1C[C@@H](C)C=C2C=C[C@H](C)[C@H](CC[C@@H]3C[C@@H](O)CC(=O)O3)[C@H]21 [lovastatin]
percentage of ARPE-19 phagocytic cells (ARPE-19 cells): 53% | mean fluorescence intensity (phagocytic index) (ARPE-19 cells): 502

CCC(C)(C)C(=O)O[C@H]1C[C@@H](C)C=C2C=C[C@H](C)[C@H](CC[C@@H]3C[C@@H](O)CC(=O)O3)[C@H]21 [simvastatin]
percentage of ARPE-19 phagocytic cells (ARPE-19 cells): 56% | mean fluorescence intensity (phagocytic index) (ARPE-19 cells): 513

CC(C)c1c(C(=O)Nc2ccccc2)c(-c2ccccc2)c(-c2ccc(F)cc2)n1CC[C@@H](O)C[C@@H](O)CC(=O)O [atorvastatin]
visual acuity improved by ([1]; person with AMD, six months after 80 mg atorvastatin daily): 12 letters | atrophy of the RPE (SD-OCT) [1, 3]: without accompanying atrophy of the RPE | drusen (fundus examination and SD-OCT) [1, 3]: complete disappearance of the drusen | visual acuity ([1]; six months after 80 mg atorvastatin daily, 20/30 before treatment): 20/20 | Chol. Reduction ([2]; All (n = 23)): −62 +/− 35 | Last VA (letters) ([2]; All (n = 23), initial 77.6 +/- 8.3): 77.7 +/− 8.4 letters | Last Cholesterol ([2]; All (n = 23), initial 208 +/- 34.9): 147 +/− 31 | Chol. Reduction ([2]; Non Responders (n = 13)): 71 +/− 35.9 | VA gain (loss) ([2]; Non Responders (n = 13)): −2.3 | Last VA (letters) ([2]; Non Responders (n = 13), initial 80.2 +/- 6): 77.9 +/− 7.1 letters | Last Cholesterol ([2]; Non Responders (n = 13), initial 207 +/- 37.4): 136 +/− 24.4 | Chol. Reduction ([2]; Responders (n = 10)): 49 +/− 31.2 | VA gain (loss) ([2]; Responders (n = 10)): +3.3 | Last VA (letters) ([2]; Responders (n = 10), initial 74.2 +/- 9.9): 77.5 +/− 10.3 letters | Last Cholesterol ([2]; Responders (n = 10), initial 210 +/- 33.4): 161 +/− 34.2 | patients showing near-complete regression of drusen deposits ([2]; among 23 patients who completed): eight | effect on progression of pigmentary changes or of pre-existing atrophy ([2]; high-dose atorvastatin): did not appear to have a positive or negative effect | letters lost on average ([2]; non-responders): 2.2 letters | patients who exited the study (cramps, muscle aches, hair loss) ([2]; of 26 patients enrolled): Three | patients who responded to the treatment (regression of drusen deposits) ([2]; patients who completed the pilot study): Ten of 23 | average time to response ([2]; responders): 11.7 months | letters gained on average ([2]; responders): 3 letters | time to response, range ([2]; responders): 3-22 months | percentage of phagocytic ARPE-19 cells (ARPE-19 cells; 1 μM atorvastatin): 35% | mean fluorescence intensity of cells (ARPE-19 cells; 1 μM atorvastatin): 368 | percentage of phagocytic ARPE-19 cells (ARPE-19 cells; 25 μM atorvastatin): 40% | mean fluorescence intensity of cells (ARPE-19 cells; 25 μM atorvastatin): 443 | decrease in mean fluorescence intensity induced by ox-LDL (ARPE-19 cells; [4]): completely reversed | decrease in the percentage of phagocytic cells induced by ox-LDL (ARPE-19 cells; [4]): completely reversed | percentage of phagocytic ARPE-19 cells (ARPE-19 cells; 50 μM atorvastatin): 42% | decrease in mean fluorescence intensity induced by cholesterol crystals (ARPE-19 cells; [5]): completely reversed | decrease in the percentage of phagocytic cells induced by cholesterol crystals (ARPE-19 cells; [5]): completely reversed | mean fluorescence intensity of cells (ARPE-19 cells; 50 μM atorvastatin): 453 | percentage of ARPE-19 phagocytic cells (ARPE-19 cells): 43% | percentage of phagocytic ARPE-19 cells (ARPE-19 cells; 75 μM atorvastatin): 46% | mean fluorescence intensity of cells (ARPE-19 cells; 75 μM atorvastatin): 467 | levels of IL-6 compared to control (IL-6; 0.1 μM atorvastatin pretreatment, cholesterol crystals (3.2-fold alone)): 1.7 fold | levels of IL-6 compared to control (IL-6; 0.1 μM atorvastatin pretreatment, ox-LDL (2.6-fold alone)): 1.9 fold | levels of IL-6 compared to control (IL-6; 0.5 μM atorvastatin pretreatment, ox-LDL (2.6-fold alone)): 1.3 fold | levels of IL-6 compared to control (IL-6; 1 μM atorvastatin pretreatment, cholesterol crystals (3.2-fold alone)): 0.8 fold | levels of IL-6 compared to control (IL-6; 1 μM atorvastatin pretreatment, ox-LDL (2.6-fold alone)): 1.4 fold | levels of IL-8 compared to control (IL-8; 0.1 μM atorvastatin pretreatment, cholesterol crystals (2.5-fold alone), western blot): 1.8 fold | levels of IL-8 compared to control (IL-8; 0.1 μM atorvastatin pretreatment, ox-LDL (1.3-fold alone), ELISA): 1.2 fold | levels of IL-8 compared to control (IL-8; 0.5 μM atorvastatin pretreatment, cholesterol crystals (2.5-fold alone), western blot): 1.6 fold | levels of IL-8 compared to control (IL-8; 0.5 μM atorvastatin pretreatment, ox-LDL (1.3-fold alone), ELISA): 1.02 fold | levels of IL-8 compared to control (IL-8; 1 μM atorvastatin pretreatment, cholesterol crystals (2.5-fold alone), western blot): 1.1 fold | levels of IL-8 compared to control (IL-8; 1 μM atorvastatin pretreatment, ox-LDL (1.3-fold alone), ELISA): 0.99 fold
